Laboratory results taken from ChEMBL document CHEMBL4145592, “Synthesis of Phosphatidylserine and Its Stereoisomers: Their Role in Activation of Blood Coagulation” (ACS Med Chem Lett, 2018).
Calls of active or inactive are those of the source. The calls are words filed in the database; no cut-off is given here.

What was measured:
[1] = target: T1, Coagulation factor VII/tissue factor (Homo sapiens) (UniProt P08709+P13726); assay: (§1) Activation of full length recombinant human His-tagged tissue factor expressed in Escherichia coli BL21(DE3)/recombinant factor 7a (unknown origin) assessed as induction of coagulant factor-10a production using S-2765 as substrate measured for 2 mins in presence of phosphatidylcholine by colorimetric method relative to phosphatidylcholine alone
[2] = target: T1, Coagulation factor VII/tissue factor (Homo sapiens); assay: as §1, with “method” for “method relative to phosphatidylcholine alone”

SMILES | fold change (FC) [1] | Activity [2]
CCCCCCCC/C=C\CCCCCCCC(=O)OC[C@@H](COP(=O)(O)OC[C@H](N)C(=O)O)OC(=O)CCCCCCC/C=C\CCCCCCCC | 2 | 
CCCCCCCC/C=C\CCCCCCCC(=O)OC[C@@H](COP(=O)(O)OC[C@@H](N)C(=O)O)OC(=O)CCCCCCC/C=C\CCCCCCCC |  | inactive
CCCCCCCC/C=C\CCCCCCCC(=O)OC[C@H](COP(=O)(O)OC[C@H](N)C(=O)O)OC(=O)CCCCCCC/C=C\CCCCCCCC | 6 | 
CCCCCCCC/C=C\CCCCCCCC(=O)OC[C@H](COP(=O)(O)OC[C@@H](N)C(=O)O)OC(=O)CCCCCCC/C=C\CCCCCCCC |  | Active
